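Where inhibition never reached the appropriate level, the endpoint shown equals the highest concentration tested. Otherwise, values were interpolated linearly from a five-concentration, 48-hour dose response in 96-well plates. Here, GI50 denotes the concentration required for 50% inhibition of growth. Definition used: TGI = concentration required for complete inhibition of growth.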
Legend:
Test in all cases: NCI anticancer screen, dose series, 48 h
HL-60(TB) leukemia = tested on: HL-60(TB) leukemia
HOP-62 NSCLC = tested on: HOP-62 NSCLC
NCI-H226 lung = tested on: NCI-H226 lung
NCI/ADR-RES ovarian = tested on: NCI/ADR-RES ovarian
OVCAR-5 ovarian = tested on: OVCAR-5 ovarian
RXF 393 renal = tested on: RXF 393 renal
SF-295 CNS = tested on: SF-295 CNS
SNB-75 CNS = tested on: SNB-75 CNS
TK-10 renal = tested on: TK-10 renal
A498 renal = tested on: A498 renal

| Compound | TGI (HL-60(TB) leukemia) [µM] | TGI (HOP-62 NSCLC) [µM] | TGI (NCI-H226 lung) [µM] | TGI (NCI/ADR-RES ovarian) [µM] | TGI (OVCAR-5 ovarian) [µM] | TGI (RXF 393 renal) [µM] | TGI (SF-295 CNS) [µM] | TGI (SNB-75 CNS) [µM] | TGI (TK-10 renal) [µM] | TGI (A498 renal) [µM] | GI50 (A498 renal) [µM] | GI50 (HL-60(TB) leukemia) [µM] | GI50 (HOP-62 NSCLC) [µM] | GI50 (NCI-H226 lung) [µM] | GI50 (NCI/ADR-RES ovarian) [µM] | GI50 (OVCAR-5 ovarian) [µM] | GI50 (SF-295 CNS) [µM] | GI50 (SNB-75 CNS) [µM] | GI50 (TK-10 renal) [µM] |
| --- | --- | --- | --- | --- | --- | --- | --- | --- | --- | --- | --- | --- | --- | --- | --- | --- | --- | --- | --- |
| Cc1ccc(-c2nc(N/N=C/c3ccc(O)cc3)c3ccccc3n2)cc1 | > 100 | > 100 | > 100 | > 100 | 61.9 | 76 | 89.5 | 64 | 68.5 | – | – | – | – | – | – | – | – | – | – |
| Cc1csc2c1-n1cccc1C2=O | – | > 100 | > 100 | > 100 | > 100 | > 100 | > 100 | > 100 | > 100 | > 100 | – | – | – | – | – | – | – | – | – |
| C=C1C(O)C[C@H](OC(C)=O)[C@]2(C)C1C(OC(C)=O)[C@]1(C(C)(C)O)CC(O)C(C)=C1[C@@H](OC(=O)c1ccccc1)C2OC(C)=O (stereo partly drawn) | > 10 | – | > 10 | > 10 | > 10 | > 10 | > 10 | > 10 | > 10 | > 10 | – | – | – | – | – | – | – | – | – |
| CC(=O)Nc1ccc2[nH]c(C(=O)N3CC(CCl)c4c3cc([N+](=O)[O-])c3ccccc43)cc2c1 (stereo not drawn) | 23 | – | 58.8 | > 100 | 96.9 | 32.7 | > 100 | > 64.4 | > 100 | 4.06 | – | – | – | – | – | – | – | – | – |
| O=c1oc2ccccc2cc1-c1cn2c(n1)sc1ccccc12 | > 100 | > 100 | > 100 | > 100 | – | > 100 | > 100 | > 100 | > 100 | – | – | – | – | – | – | – | – | – | – |
| Cn1cc(-c2ccc3cc(-c4ccc(CC(=O)Nc5cc(C(C)(C)C)on5)cc4)cnc3c2)cn1 | 7.45 | > 100 | 34.6 | 5.11 | 18.9 | – | 6.74 | 3.03 | 10.4 | 2.26 | 0.269 | 2.66 | 2.54 | 2.46 | 1.84 | 4.4 | 1.65 | 1.11 | 1.63 |
| CC1(C)CCC(C)(C)C1C(=O)NC(O)C(=O)O (stereo not drawn) | > 100 | > 100 | > 100 | > 100 | > 100 | – | – | > 100 | > 100 | > 100 | – | – | – | – | – | – | – | – | – |
| Cc1cccc(N2C(=O)C3c4[nH]c5ccccc5c4C4CCC(C(C)(C)C)CC4C3C2=O)c1 (stereo not drawn) | > 100 | 13.3 | 34.1 | 32.2 | 35.2 | 26.3 | 21.9 | – | 27.2 | 25.8 | – | – | – | – | – | – | – | – | – |
| COc1ccc([C@@H]2CC(=O)N2)cc1 | > 100 | > 100 | > 100 | – | > 100 | > 100 | > 100 | > 100 | > 100 | > 100 | – | – | – | – | – | – | – | – | – |
| COc1cc2c(c(O)c1OC)CC1CCC(=O)N1C2c1cccc2ccccc12 (stereo not drawn) | > 100 | 41.8 | – | 53.7 | 38.2 | – | 41.1 | > 100 | > 100 | 68.8 | – | – | – | – | – | – | – | – | – |
| O=C(O)c1cnc(-n2[nH]c3c(c2=O)CCCC3)[nH]c1=O | > 100 | – | > 100 | > 100 | > 100 | – | > 100 | – | > 100 | > 100 | – | – | – | – | – | – | – | – | – |
